This series in a line: Drug level in mouse liver mitochondria. Type of series: ADME. The following applies: in vivo.

The compound `CC[C@]1(O)C[C@@H]2CN(CCc3c([nH]c4ccccc34)[C@@](C(=O)OC)(c3cc4c(cc3OC)N(C)[C@H]3[C@@](O)(C(=O)OC)[C@H](OC(C)=O)[C@]5(CC)C=CCN6CC[C@]43[C@@H]65)C2)C1` [VINBLASTINE] showed a Drug uptake of 18.7%.

Source of the values: ChEMBL document CHEMBL1150210, “Metabolism of the Catharanthus alkaloids: from Streptomyces griseus to monoamine oxidase B” (J Nat Prod, 1992).
